{"source": "patent US9067894B1", "about": "“Compound, composition, and method of activating GIRK potassium channel and use of same for treating conditions of interest” (Vanderbilt University, priority 2013, dated 2015)", "key": {"[1]": {"experiment": "Plasma protein binding, equilibrium dialysis", "assay_type": "in vitro ADME, mouse", "settings": "murine plasma", "procedure": "Plasma Protein Binding. […] Briefly plasma (220 μL) was added to the 96-well plate containing test article (5 μL) and mixed thoroughly. Subsequently, 200 μl of the plasma-test article mixture was transferred to the cis chamber (red) of the RED plate, with an accompanying 350 μL of phosphate buffer (25 mM, pH 7.4) in the trans chamber. The RED plate was sealed and incubated 4 h at 37° C. with shaking. At completion, 50 μL aliquots from each chamber were diluted 1:1 (50 μL) with either plasma (cis) or buffer (trans) and transferred to a new 96-well plate, at which time ice-cold acetonitrile (2 volumes) was added to extract the matrices. The plate was centrifuged (3000 rcf, 10 min) and supernatant solutions transferred to a new 96-well plate. The sealed plate was stored at −20° C. until LC/MS/MS analysis.\nLiquid Chromatography/Mass Spectrometry Analysis. In vitro experiments. VU0456810 was analyzed on a Thermo Electron TSQ Quantum Ultra triple quad mass spectrometer (San Jose, Calif.) via electrospray ionization (ESI) with two Themo Electron Accella pumps (San Jose, Calif.), and a Leap Technologies CTC PAL autosampler (Carrboro, N.C.). Analytes were separated by gradient elution on a dual column system with two Thermo Hypersil Gold (2.1×30 mm, 1.9 μm) columns (San Jose, Calif.) at 40° C. HPLC mobile phase A was 0.1% formic acid in water and mobile phase B was 0.1% formic acid in acetonitrile. […]"}, "[2]": {"molecular_target": "T1, Glucocorticoid (Homo sapiens, UniProt P04150)", "T1 construct": "Ricerca", "T1 sequence (P04150 whole entry)": "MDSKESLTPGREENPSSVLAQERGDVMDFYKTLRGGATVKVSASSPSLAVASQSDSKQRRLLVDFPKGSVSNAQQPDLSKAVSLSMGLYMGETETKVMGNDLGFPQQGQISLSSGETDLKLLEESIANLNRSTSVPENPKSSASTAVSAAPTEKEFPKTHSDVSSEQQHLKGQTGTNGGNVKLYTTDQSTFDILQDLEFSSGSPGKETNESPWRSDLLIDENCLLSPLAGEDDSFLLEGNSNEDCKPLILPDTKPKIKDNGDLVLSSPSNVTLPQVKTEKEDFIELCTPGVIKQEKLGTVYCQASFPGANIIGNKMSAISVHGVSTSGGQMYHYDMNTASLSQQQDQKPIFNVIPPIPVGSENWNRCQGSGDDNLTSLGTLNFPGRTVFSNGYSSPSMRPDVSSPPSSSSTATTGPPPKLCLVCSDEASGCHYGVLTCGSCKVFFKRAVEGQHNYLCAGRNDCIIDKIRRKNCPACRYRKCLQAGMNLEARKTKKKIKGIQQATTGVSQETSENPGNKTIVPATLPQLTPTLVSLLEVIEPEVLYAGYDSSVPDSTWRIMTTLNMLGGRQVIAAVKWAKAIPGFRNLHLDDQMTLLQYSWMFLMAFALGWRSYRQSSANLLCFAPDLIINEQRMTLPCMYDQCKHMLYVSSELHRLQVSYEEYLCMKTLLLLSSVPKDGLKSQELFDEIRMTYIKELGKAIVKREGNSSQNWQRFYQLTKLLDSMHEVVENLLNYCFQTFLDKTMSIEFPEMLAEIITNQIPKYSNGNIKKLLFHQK", "experiment": "Radioligand displacement (Ricerca)", "assay_type": "binding"}, "[3]": {"molecular_target": "T2, Dopamine D1 (Homo sapiens, UniProt P21728)", "T2 construct": "Ricerca", "T2 sequence (P21728 whole entry)": "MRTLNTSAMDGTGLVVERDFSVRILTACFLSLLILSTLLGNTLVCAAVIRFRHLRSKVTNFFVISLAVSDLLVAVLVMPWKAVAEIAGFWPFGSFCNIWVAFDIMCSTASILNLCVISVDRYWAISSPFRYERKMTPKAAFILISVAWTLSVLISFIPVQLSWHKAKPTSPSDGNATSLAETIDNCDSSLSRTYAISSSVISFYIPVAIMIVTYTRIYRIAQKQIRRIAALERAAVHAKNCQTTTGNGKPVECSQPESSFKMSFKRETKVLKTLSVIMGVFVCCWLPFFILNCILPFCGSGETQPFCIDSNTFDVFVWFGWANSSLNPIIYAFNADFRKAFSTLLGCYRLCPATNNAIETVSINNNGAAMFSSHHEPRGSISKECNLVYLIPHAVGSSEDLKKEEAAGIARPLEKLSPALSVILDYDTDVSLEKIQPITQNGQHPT", "experiment": "Radioligand displacement (Ricerca)", "assay_type": "binding"}, "[4]": {"experiment": "Rotarod test", "assay_type": "in vivo, mouse", "settings": "mice, 60 mg/kg i.p.", "procedure": "For rotarod tests, a rotarod module was inserted into a mouse home cage and was operated by the SmartCage™ (AfaSci, Inc., Redwood City, Calif.) system28. A mouse was placed on the rod and the rod began to rotate at a fixed speed (15 rpm). Latencies for the mice to fall off the rod were recorded. […] Two groups of mice (n=8 mice/group) were trained on the rotarod over 4 consecutive days. On training days, each mouse was allowed to perform on the rotarod a total of 4 times. For each training day, each mouse's lowest rotarod latency was excluded. The remaining 3 rotarod latencies were averaged and served as the mouse's rotarod performance for that training day. […] Approximately 1 hour post-drug/vehicle injection, each mouse's rotarod performance was assessed a total of 4 times with the mouse's worst performance being excluded. The remaining 3 rotarod latencies were then averaged for each mouse and these values were normalized to the mouse's previous performance on the final training day to account for variation in individual animal's competency on the rotarod."}}, "data": [{"smiles": "Cc1cc(NC(=O)Nc2ccc(F)c(F)c2)n(-c2ccccc2)n1", "note": "[VU0456810, 1-(3,4-difluorophenyl)-3-(3-methyl-1-phenyl-1H-pyrazol-5-yl)urea]", "values": [{"measurement": "Plasma Protein Binding", "setting": "[1]", "value": 3, "unit": "% fu"}, {"measurement": "inhibition at 10 µM", "setting": "[2]", "value": 2, "unit": "%"}, {"measurement": "inhibition at 10 µM", "setting": "[3]", "value": -5, "unit": "%"}, {"measurement": "rotarod performance compared to vehicle", "setting": "[4]", "value": "small and insignificant decrease"}, {"measurement": "decrease in performance on the rotarod vs vehicle", "setting": "[4]; insignificant (p=0.7)", "value": 14, "unit": "%"}]}]}
